Measurements published in US12257214B2, “Compositions and methods comprising deoxy-pentitols” (The Charlotte Mecklenburg Hospital Authority, priority 2021, dated 2025).

Key:
RKO = experiment: ATPlite cell IC50 screening, RKO; format: cell-based; settings: Homo sapiens, Colon carcinoma, ATPlite luminescence
Protocol: (§1) In brief, the cells were cultures in relevant medium and treated with a range of 9 doses of 2-deoxyribitol, from 10 mM, 5 mM, 2.5 mM, 1.25 mM, 0.62 mM, 0.31 mM, 0.08 mM, and 0.04 mM. Cells were diluted in the corresponding ATCC recommended medium and dispensed in a 384-well plate, depending on the cell line used, at a density of 100-6400 cells per well in 45 μl medium. For each used cell line the optimal cell density was used. The margins of the plate were filled with phosphate-buffered saline. Plated cells were incubated in a humidified atmosphere of 5% CO2 at 37° C. After 24 hours, 5 μl of compound dilution was added and plates were further incubated. At the end of experiment (t=end), 24 μl of ATPlite 1Step™ (PerkinElmer) solution was added to each well, and subsequently shaken for 2 minutes. After 10 minutes of incubation in the dark, the luminescence was recorded on an Envision multimode reader (PerkinElmer). IC50 was determined in comparison with the control samples. The cell lines tested and their corresponding disease model is indicated the left-most and middle columns, respectively. IC50 values are given in μM values in the right-most column. This screening was performed of a list of cancer cells to establish IC50 values for each of the cancer cell lines. This screening provides evidence for the potential of 2DR to treat many cancer types.

SW620 = experiment: ATPlite cell IC50 screening, SW620; format: cell-based; settings: Homo sapiens, SW-620; SW620, Colon adenocarcinoma; ATPlite luminescence
Protocol: as §1

SUP-T1 = experiment: ATPlite cell IC50 screening, SUP-T1; format: cell-based; settings: Homo sapiens; SUP-T1, Childhood T lymphoblastic lymphoma; ATPlite luminescence
Protocol: as §1

CCF-STTG1 = experiment: ATPlite cell IC50 screening, CCF-STTG1; format: cell-based; settings: Homo sapiens; CCF-STTG1, Astrocytoma; ATPlite luminescence
Protocol: as §1

NCI-H460 = experiment: ATPlite cell IC50 screening, NCI-H460; format: cell-based; settings: Homo sapiens; NCI-H460, Large cell lung carcinoma; ATPlite luminescence
Protocol: as §1

SJCRH30 = experiment: ATPlite cell IC50 screening, SJCRH30; format: cell-based; settings: SJCRH30, Alveolar rhabdomyosarcoma; ATPlite luminescence
Protocol: as §1

MIA PaCa-2 = experiment: ATPlite cell IC50 screening, MIA PaCa-2; format: cell-based; settings: Homo sapiens; MIA PaCa-2, Pancreatic ductal adenocarcinoma; ATPlite luminescence
Protocol: as §1

SW982 = experiment: ATPlite cell IC50 screening, SW982; format: cell-based; settings: Homo sapiens; SW982, Biphasic synovial sarcoma; ATPlite luminescence
Protocol: as §1

MOLT-4 = experiment: ATPlite cell IC50 screening, MOLT-4; format: cell-based; settings: Homo sapiens; MOLT-4, Adult T acute lymphoblastic leukemia; ATPlite luminescence
Protocol: as §1

Water solubility = format: physicochemical
Excerpt: It can be delivered by direct application to local areas, given orally or through vasculature system. 2-deoxyribitol can also be delivered before, at the same time, or after the use of other drugs. 2-deoxyribitol can be applied as treatment for cancers before, at the same time, or after any other treatment procedure(s). In addition, the effect of 2-deoxyribitol on three tissue types of cancers indicate that it can be applied for many other epithelial cancers.

SW900 = experiment: ATPlite cell IC50 screening, SW900; format: cell-based; settings: Homo sapiens; SW900, Squamous cell lung carcinoma; ATPlite luminescence
Protocol: as §1

786-O = experiment: ATPlite cell IC50 screening, 786-O; format: cell-based; settings: Homo sapiens, 786-0, Renal cell carcinoma, ATPlite luminescence
Protocol: as §1

RPMI-7951 = experiment: ATPlite cell IC50 screening, RPMI-7951; format: cell-based; settings: Homo sapiens; RPMI-7951, Melanoma; ATPlite luminescence
Protocol: as §1

[1] = tested on: breast cancer cell line MCF7; experiment: MCF7 cell culture, growth and death (FIG. 2); format: cell-based; settings: 3 day treatment
Protocol: From left-top-to-bottom: Control, 0.4 mM Drug, 2 mM rib, and 10 mM Drug; From right-top-to-bottom: 0.4 mM rib; 2 mM Drug; 10 mM rib; and 50 mM Drug.
However, this effect was not related to the enhanced expression of glycosylation of α-DG.

LS 174T = experiment: ATPlite cell IC50 screening, LS 174T; format: cell-based; settings: Homo sapiens, LS174T, Colon adenocarcinoma, ATPlite luminescence
Protocol: as §1

RT4 = experiment: ATPlite cell IC50 screening, RT4; format: cell-based; settings: Homo sapiens, RT-4; RT4, Bladder carcinoma; ATPlite luminescence
Protocol: as §1

THP-1 = experiment: ATPlite cell IC50 screening, THP-1; format: cell-based; settings: Homo sapiens; THP-1, Childhood acute monocytic leukemia; ATPlite luminescence
Protocol: as §1

SU-DHL-1 = experiment: ATPlite cell IC50 screening, SU-DHL-1; format: cell-based; settings: Homo sapiens; SU-DHL-1, Anaplastic large cell lymphoma; ATPlite luminescence
Protocol: as §1

DU4475 = experiment: ATPlite cell IC50 screening, DU4475; format: cell-based; settings: Homo sapiens, DU-4475; DU4475, Breast carcinoma; ATPlite luminescence
Protocol: as §1

NCI-H82 = experiment: ATPlite cell IC50 screening, NCI-H82; format: cell-based; settings: Homo sapiens; NCI-H82, Small cell lung carcinoma; ATPlite luminescence
Protocol: as §1

HCT-15 = experiment: ATPlite cell IC50 screening, HCT-15; format: cell-based; settings: Homo sapiens; HCT-15, Colon adenocarcinoma; ATPlite luminescence
Protocol: as §1

A-172 = experiment: ATPlite cell IC50 screening, A-172; format: cell-based; settings: Homo sapiens; A-172, Glioblastoma; ATPlite luminescence
Protocol: as §1

PA-1 = experiment: ATPlite cell IC50 screening, PA-1; format: cell-based; settings: Homo sapiens; PA-1, Ovarian mixed germ cell tumor; ATPlite luminescence
Protocol: as §1

HCT 116 = experiment: ATPlite cell IC50 screening, HCT 116; format: cell-based; settings: Homo sapiens; HCT 116, Colon carcinoma; ATPlite luminescence
Protocol: as §1

J82 = experiment: ATPlite cell IC50 screening, J82; format: cell-based; settings: Homo sapiens; J82, Bladder carcinoma; ATPlite luminescence
Protocol: as §1

SMILES: OCC[C@H](O)[C@H](O)CO [2-deoxyribitol]
- IC50 (RKO): 5.77 mM
- IC50 (SW620): 5.22 mM
- IC50 (SUP-T1): 3.06 mM
- IC50 (CCF-STTG1): 5.84 mM
- IC50 (NCI-H460): 3.17 mM
- IC50 (SJCRH30): 4.46 mM
- IC50 (MIA PaCa-2): 4.87 mM
- IC50 (SW982): 2.78 mM
- IC50 (MOLT-4): 4.94 mM
- water solubility (Water solubility): water soluble
- IC50 (SW900): 3.19 mM
- IC50 (786-O): 8.57 mM
- IC50 (RPMI-7951): 6.77 mM
- effect on cell growth, death and morphology ([1]; MCF7, 0.4-50 mM): dose-dependent inhibition in cell growth and increase in cell death
- cells survive compared to the control ([1]; MCF7, dose of 10 mM or higher): about 10%
- IC50 (LS 174T): 2.52 mM
- IC50 (RT4): > 10 mM
- IC50 (THP-1): 5.19 mM
- IC50 (SU-DHL-1): 2.65 mM
- IC50 (DU4475): 5.72 mM
- IC50 (NCI-H82): 2.94 mM
- IC50 (HCT-15): 7.7 mM
- IC50 (A-172): > 10 mM
- IC50 (PA-1): 3.49 mM
- IC50 (HCT 116): 5.73 mM
- IC50 (J82): 3.63 mM
